Test results taken from patent US8030498B2, “Benzoylpyrazole compounds and herbicides containing them” (Ishihara Sangyo Kaisha, Ltd., priority 2005, dated 2011).

Legend:
[1] = system: barnyardgrass (Echinochloa crus-galli L.); experiment: Test Example 1: foliar treatment, growth inhibition rate, barnyardgrass; assay type: in vivo; details: visually observed 17th to 23rd day after application
Source text: (§1) Upland field soil was put into a 1/170,000 hectare pot, and seeds of various plants were sown. When the respective plants reached predetermined leaf stage ((1) barnyardgrass (Echinochloa crus-galli L.); 0.8 to 2.5 leaf stage, (2) crabgrass (Digitaria sanguinalis L.): 0.5 to 3.0 leaf stage, (3) greenfoxtail (Setaria viridis L.): 1.0 to 3.0 leaf stage, (4) redroot pigweed (Amaranthus retroflexus L.): cotyledon stage to 2.0 leaf stage, (5) prickly sida (Sida spinosa L.): cotyledon stage to 1.1 leaf stage, (6) velvetleaf (Abutilon theophrasti MEDIC.): cotyledon stage to 1.5 leaf stage, (7) rice (Oryza sativa L.): 1.0 to 2.5 leaf stage, (8) wheat (Triticum spp.): 1.7 to 3.4 leaf stage, (9) corn (Zea mays L.): 2.0 to 3.5 leaf stage, and (10) soybean (Glycine max Merr.): primary leaf stage to 0.3 leaf stage), wettable powders or emulsifiable concentrates of the compounds of the present invention prepared in accordance with a conventional preparation method, were weighed so that the active ingredients became the prescribed amounts, and diluted with water in an amount corresponding to 500 liter per 1 hectare. 0.1 vol % of an agricultural spreader was further added to the respective diluted liquids, followed by foliar treatment with a small sprayer.
(§2) On the 17th to 23rd day after application, the state of growth of the respective plants was visually observed, and the herbicidal effect was evaluated in accordance with a growth inhibition rate (%) of 0 (equivalent to the non-treated area) to 100% (complete kill).

[2] = system: crabgrass (Digitaria sanguinalis L.); experiment: Test Example 1: foliar treatment, growth inhibition rate, crabgrass; assay type: in vivo; details: visually observed 17th to 23rd day after application
Source text: as §1, §2

[3] = system: greenfoxtail (Setaria viridis L.); experiment: Test Example 1: foliar treatment, growth inhibition rate, greenfoxtail; assay type: in vivo; details: visually observed 17th to 23rd day after application
Source text: as §1, §2

[4] = system: redroot pigweed (Amaranthus retroflexus L.); experiment: Test Example 1: foliar treatment, growth inhibition rate, redroot pigweed; assay type: in vivo; details: visually observed 17th to 23rd day after application
Source text: as §1, §2

[5] = system: prickly sida (Sida spinosa L.); experiment: Test Example 1: foliar treatment, growth inhibition rate, prickly sida; assay type: in vivo; details: visually observed 17th to 23rd day after application
Source text: as §1, §2

[6] = system: velvetleaf (Abutilon theophrasti MEDIC.); experiment: Test Example 1: foliar treatment, growth inhibition rate, velvetleaf; assay type: in vivo; details: visually observed 17th to 23rd day after application
Source text: as §1, §2

rice (Oryza sativa L.) = experiment: Test Example 1: foliar treatment, growth inhibition rate, rice; assay type: in vivo; details: visually observed 17th to 23rd day after application
Source text: as §1, §2

wheat (Triticum spp.) = experiment: Test Example 1: foliar treatment, growth inhibition rate, wheat; assay type: in vivo; details: visually observed 17th to 23rd day after application
Source text: as §1, §2

corn (Zea mays L.) = experiment: Test Example 1: foliar treatment, growth inhibition rate, corn; assay type: in vivo; details: visually observed 17th to 23rd day after application
Source text: as §1, §2

[7] = system: soybean (Glycine max Merr.); experiment: Test Example 1: foliar treatment, growth inhibition rate, soybean; assay type: in vivo; details: visually observed 17th to 23rd day after application
Source text: as §1, §2

barnyardgrass = experiment: Test Example 2: soil application on the day after sowing, growth inhibition rate, barnyardgrass; assay type: in vivo, Echinochloa crus-galli L.; details: 250 g/ha active ingredient, observed on 19th to 24th day
Source text: (§3) Upland field soil was put into a 1/170,000 hectare pot, and seeds of various plants (barnyardgrass, crabgrass, greenfoxtail, redroot pigweed, prickly sida, velvetleaf, rice, wheat, corn and soybean) were sown. On the day after sowing, wettable powders or emulsifiable concentrates of the compounds of the present invention prepared in accordance with a conventional preparation method, were weighed so that the active ingredients became the prescribed amounts, and diluted with water in an amount corresponding to 500 liter per 1 hectare, followed by soil application with a small sprayer. On the 19th to 24th day after the application, the state of growth of the respective plants was visually observed, and the herbicidal effect was evaluated in accordance with a growth inhibition rate (%) of from 0 (equivalent to the non-treated area) to 100% (complete kill).

crabgrass = experiment: Test Example 2: soil application on the day after sowing, growth inhibition rate, crabgrass; assay type: in vivo, Digitaria sanguinalis L.; details: 250 g/ha active ingredient, observed on 19th to 24th day
Source text: as §3

greenfoxtail = experiment: Test Example 2: soil application on the day after sowing, growth inhibition rate, greenfoxtail; assay type: in vivo, Setaria viridis L.; details: 250 g/ha active ingredient, observed on 19th to 24th day
Source text: as §3

redroot pigweed = experiment: Test Example 2: soil application on the day after sowing, growth inhibition rate, redroot pigweed; assay type: in vivo, Amaranthus retroflexus L.; details: 250 g/ha active ingredient, observed on 19th to 24th day
Source text: as §3

prickly sida = experiment: Test Example 2: soil application on the day after sowing, growth inhibition rate, prickly sida; assay type: in vivo, Sida spinosa L.; details: 250 g/ha active ingredient, observed on 19th to 24th day
Source text: as §3

velvetleaf = experiment: Test Example 2: soil application on the day after sowing, growth inhibition rate, velvetleaf; assay type: in vivo, Abutilon theophrasti MEDIC.; details: 250 g/ha active ingredient, observed on 19th to 24th day
Source text: as §3

rice = experiment: Test Example 2: soil application on the day after sowing, growth inhibition rate, rice; assay type: in vivo, Oryza sativa L.; details: 250 g/ha active ingredient, observed on 19th to 24th day
Source text: as §3

corn = experiment: Test Example 2: soil application on the day after sowing, growth inhibition rate, corn; assay type: in vivo, Zea mays L.; details: 250 g/ha active ingredient, observed on 19th to 24th day
Source text: as §3

soybean = experiment: Test Example 2: soil application on the day after sowing, growth inhibition rate, soybean; assay type: in vivo, Glycine max Merr.; details: 250 g/ha active ingredient, observed on 19th to 24th day
Source text: as §3

| Structure (SMILES) | Growth inhibition rate (%) Barnyardgrass (barnyardgrass) | Growth inhibition rate (%) Crabgrass (crabgrass) | Growth inhibition rate (%) Greenfoxtail (greenfoxtail) | Growth inhibition rate (%) redroot pigweed (redroot pigweed) | Growth inhibition rate (%) Prickly sida (prickly sida) | Growth inhibition rate (%) Velvetleaf (velvetleaf) | Growth inhibition rate (%) Rice (rice) | Growth inhibition rate (%) Corn (corn) | Growth inhibition rate (%) Soybean (soybean) | Growth inhibition rate (%) Barnyardgrass ([1]; 31 g/ha active ingredient) | Growth inhibition rate (%) Crabgrass ([2]; 31 g/ha active ingredient) | Growth inhibition rate (%) Greenfoxtail ([3]; 31 g/ha active ingredient) | Growth inhibition rate (%) Prickly sida ([5]; 31 g/ha active ingredient) | Growth inhibition rate (%) Velvetleaf ([6]; 31 g/ha active ingredient) | Growth inhibition rate (%) Rice (rice (Oryza sativa L.); 31 g/ha active ingredient) | Growth inhibition rate (%) Wheat (wheat (Triticum spp.); 31 g/ha active ingredient) | Growth inhibition rate (%) Corn (corn (Zea mays L.); 31 g/ha active ingredient) | Growth inhibition rate (%) Soybean ([7]; 31 g/ha active ingredient) | Growth inhibition rate (%) redroot pigweed ([4]; 31 g/ha active ingredient) | also measured |
| --- | --- | --- | --- | --- | --- | --- | --- | --- | --- | --- | --- | --- | --- | --- | --- | --- | --- | --- | --- | --- |
| CCSC(=O)Oc1c(C(=O)c2ccc(S(C)(=O)=O)c(S(C)(=O)=O)c2Cl)cnn1C [compound 224] | 100% | 100% | 98% | 100% | 75% | 70% | 98% | 10% | 50% | – | – | – | – | – | – | – | – | – | – | Growth inhibition rate (%) Barnyardgrass ([1]; 63 g/ha active ingredient): 95%; Growth inhibition rate (%) Crabgrass ([2]; 63 g/ha active ingredient): 60%; Growth inhibition rate (%) Greenfoxtail ([3]; 63 g/ha active ingredient): 70%; Growth inhibition rate (%) redroot pigweed ([4]; 63 g/ha active ingredient): 95%; Growth inhibition rate (%) Prickly sida ([5]; 63 g/ha active ingredient): 70%; Growth inhibition rate (%) Velvetleaf ([6]; 63 g/ha active ingredient): 60%; Growth inhibition rate (%) Rice (rice (Oryza sativa L.); 63 g/ha active ingredient): 20%; Growth inhibition rate (%) Wheat (wheat (Triticum spp.); 63 g/ha active ingredient): 0%; Growth inhibition rate (%) Corn (corn (Zea mays L.); 63 g/ha active ingredient): 0%; Growth inhibition rate (%) Soybean ([7]; 63 g/ha active ingredient): 100% |
| COCCOc1c(S(C)(=O)=O)ccc(C(=O)c2cnn(C)c2OC(=O)SC)c1C [compound 233] | 100% | 100% | 100% | 100% | 40% | 100% | 100% | 0% | 50% | 100% | 100% | 100% | 60% | 100% | 80% | 0% | 0% | 100% | – | – |
| CCSC(=O)Oc1c(C(=O)c2ccc(S(C)(=O)=O)c(CCOC)c2C)cnn1C [compound 75] | – | 100% | – | 100% | – | 80% | – | 10% | – | 98% | 100% | 100% | 100% | 100% | 98% | 0% | 40% | 98% | 100% | – |
| CCSC(=O)Oc1c(C(=O)c2ccc(S(C)(=O)=O)c(COC)c2Cl)cnn1C [compound 42] | – | 100% | – | 100% | – | 70% | – | 0% | – | 100% | 98% | 95% | 90% | 95% | 90% | 0% | 0% | 95% | 100% | – |
| CCSC(=O)Oc1c(C(=O)c2ccc(S(C)(=O)=O)c(OCC(C)OC)c2C)cnn1C (centres unmarked) [compound 189] | 100% | 100% | 100% | 100% | 100% | 100% | 100% | 0% | 10% | 95% | 95% | 98% | 70% | 100% | 90% | – | 0% | 98% | – | – |
| CCSC(=O)Oc1c(C(=O)c2ccc(S(C)(=O)=O)c(OCC(F)(F)F)c2C)cnn1C [compound 79] | – | 90% | – | 90% | – | 50% | – | 0% | – | 100% | 100% | 98% | 75% | 98% | 60% | 0% | 50% | 100% | 100% | – |
| COCc1c(S(C)(=O)=O)ccc(C(=O)c2cnn(C)c2OC(=O)SC)c1Cl [compound 74] | – | 90% | – | 95% | – | 70% | – | 0% | – | 100% | 98% | 80% | 70% | 100% | 95% | 20% | 40% | 98% | 100% | – |
